Test results as given in US12595236B2, “Pyrimidine-2,4-diamine compound and preparation method and application thereof” (ANHUI MEDICAL UNIVERSITY, priority 2021, dated 2026).

Key:
[1] = biological target: human recombinant cathepsin C (Homo sapiens, UniProt P53634); test: In vitro inhibitory effect on human recombinant cathepsin C (h-gly-arg-amc substrate); format: biochemical; settings: human recombinant cathepsin C 2 nM, 30 min preincubation at 25° C., substrate 100 μM; read-out: CatC IC50
[2] = biological target: T1, intracellular cathepsin C in THP-1 cells (Homo sapiens, UniProt P53634); test: In vitro inhibitory effect on intracellular cathepsin C in THP-1 cells; format: cell-based; settings: 1 h incubation at 37° C., h-gly-arg-amc 200 μM, read-out: THP-1 CatC IC50
T1 construct: endogenous in cells; host or cells: THP-1
T1 sequence (P53634 25-463): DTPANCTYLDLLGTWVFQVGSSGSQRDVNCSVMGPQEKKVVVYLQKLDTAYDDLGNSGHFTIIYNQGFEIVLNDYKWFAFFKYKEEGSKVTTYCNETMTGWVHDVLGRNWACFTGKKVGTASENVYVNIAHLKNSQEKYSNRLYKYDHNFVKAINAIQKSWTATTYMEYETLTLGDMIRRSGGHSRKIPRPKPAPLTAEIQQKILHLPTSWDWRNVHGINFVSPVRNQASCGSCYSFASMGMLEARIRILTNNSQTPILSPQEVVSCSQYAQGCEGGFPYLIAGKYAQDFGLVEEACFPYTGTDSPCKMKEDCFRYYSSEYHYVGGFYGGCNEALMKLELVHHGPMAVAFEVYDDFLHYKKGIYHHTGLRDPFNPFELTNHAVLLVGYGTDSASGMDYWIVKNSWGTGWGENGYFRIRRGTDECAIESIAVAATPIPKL

[3] = biological target: T2, intracellular cathepsin C in U937 cells (Homo sapiens, UniProt P53634); test: In vitro inhibitory effect on intracellular cathepsin C in U937 cells; format: cell-based; settings: 1 h incubation at 37° C., h-gly-arg-amc 200 μM, read-out: U937 CatC IC50
T2 construct: endogenous in cells; host or cells: U937
T2 sequence (P53634 25-463): as above

[4] = In vivo acute toxicity evaluation; settings: mouse, ICR mice, oral, 1500 mg/kg at one time, observed one week
Description: (§1) In Vivo Acute Toxicity Evaluation:
(§2) The mice were randomly divided into two groups and subjected to adaptive feeding for one week. […] The body weight, mortality and behavior of the mice were observed and recorded daily for one week. Subsequently, the mice were anesthetized and the tissues were used for HE staining.

ICR mice = test: In vivo acute toxicity evaluation; settings: mouse, po, 1500 mg/kg
Description: as §1, §2

cathepsin C and NSPs = test: Test of in vivo inhibition of cathepsin C and NSPs in normal mice; settings: C57BL/6 mice, oral 5, 15, 45 mg/kg for 6 days; bone marrow and blood; dose-dependent
Experimental: Test of In Vivo Inhibition of Cathepsin C and NSPs.
C57BL/6 mice (half sex, about 20 g, purchased from the Department of Animal Science of Anhui Medical University) were randomly divided into four groups (N=6). […] Mice in the control group were administered with the same amount of normal saline twice a day for 6 days. At the end, bone marrow and blood were drawn to analyze the activity of cathepsin C and NSPs. Bone marrow and blood lysates were added to a 384-well plate. A synthetic peptide substrate was used to analyze the activity of NSPs and cathepsin C.

COPD rat model = test: In vivo anti-inflammatory activity assessment, COPD model (fumigation and LPS); design: species or system rats; settings: oral 5, 15, 45 mg/kg twice a day
Experimental: In Vivo Anti-Inflammatory Activity Assessment:
(§3) A combination of fumigation and LPS (Sigma) was used. […] Except for the negative control group, all rats were exposed to cigarette smoke (XIONGSHI) for 45 min in each day from day 1 to day 13 and day 15 to day 30, subjected to tracheal instillation of LPS ([…]) on day 0 (start point of the study), and subjected to tracheal instillation of LPS ([…]) on day 14. The body weight was recorded every three days, and the behavior, coat color and breathing were observed daily. On day 31, the animals were euthanized with an overdose of chloral hydrate. Subsequently, lung, bronchoalveolar lavage fluid (BALF), blood, bone marrow samples were collected and stored at −80° C. until being detected. The levels of cathepsin C and NSP were detected with previously described methods, and cytokine levels in all samples were analyzed by ELISA kits (MULTI SCIENCES).

[5] = system: cathepsin C and downstream NSPs; test: Cathepsin C and NSP levels in COPD model; format: in vivo; settings: COPD rats, oral 5, 15, 45 mg/kg twice a day; bone marrow, blood, lung, and BALF; dose-dependent
Experimental: as §3

[6] = system: cytokines (IFN-γ, IL-1β, IL-6, IL-17, TNF-α, GM-CSF, IL-10); test: Cytokine levels in COPD model by ELISA; format: in vivo; settings: COPD rats; bone marrow, blood, lung, and BALF; dose-dependent
Experimental: as §3

Chain of human recombinant cathepsin C (P53634 25-463): as above

Row | IC50 [2] | IC50 [3] | Compound | IC50 [1] | LD50 at 1 week [4] | pathological changes in tissues and organs (HE staining) (ICR mice) | cathepsin C activity and downstream NSP activation (cathepsin C and NSPs) | histopathological changes of lung tissue (H&E staining) (COPD rat model; COPD rat model) | body weight (COPD rat model; COPD rats) | pulmonary inflammation and systemic inflammation (COPD rat model; COPD rats, 28 days, compared with the model group) | cathepsin C activity and downstream NSP activation [5] | IL-10 level [6] | level of pro-inflammatory cytokines (IFN-γ, IL-1β, IL-6, IL-17, TNF-α, and GM-CSF) [6]
1 | – | – | CN1CCN(c2ccc(Nc3ncc(Cl)c(Nc4cccc(C(F)(F)F)c4)n3)nc2)CC1 [Compound 41, 5-chloro-N^2-(5-(4-methylpiperazin-1-yl)pyridin-2-yl)-N^4-(3-(trifluoromethyl)phenyl)pyrimidine-2,4-diamine] | – | > 1500 mg/kg | no pathological changes were found | decreased obviously | ameliorated these histopathological changes in an obvious dose-dependent manner | lost their weight slowly and gained weight slightly after about 20 days | significantly less suffered from pulmonary inflammation and systemic inflammation | decreased obviously | increased cytokines (IL-10) in a dose-dependent manner | decreased level of pro-inflammatory cytokines
2 | 240.5 ± 1.2 nM | 199 ± 2.03 nM | CCCCN1CCN(c2ccc(Nc3ncc(Cl)c(Nc4cccc(C(F)(F)F)c4)n3)nc2)CC1 [Compound 48, N^2-(5-(4-butylpiperazin-1-yl)pyridin-2-yl)-5-chloro-N^4-(3-(trifluoromethyl)phenyl)pyrimidine-2,4-diamine] | – | – | – | – | – | – | – | – | – | –
3 | 139.8 ± 1.03 nM | 156 ± 2.13 nM | CON1CCN(c2ccc(Nc3ncc(C)c(Nc4cccc(C(F)(F)F)c4)n3)nc2)CC1 [Compound 67, 5-methyl-N^2-(5-(4-methoxypiperazin-1-yl)pyridin-2-yl)-N^4-(3-(trifluoromethyl)phenyl)pyrimidine-2,4-diamine] | 167 ± 2.01 nM | – | – | – | – | – | – | – | – | –

Row | Compound | IC50 [2] | IC50 [3] | IC50 [1] | LD50 at 1 week [4] | pathological changes in tissues and organs (HE staining) (ICR mice) | cathepsin C activity and downstream NSP activation (cathepsin C and NSPs) | histopathological changes of lung tissue (H&E staining) (COPD rat model; COPD rat model) | body weight (COPD rat model; COPD rats) | pulmonary inflammation and systemic inflammation (COPD rat model; COPD rats, 28 days, compared with the model group) | cathepsin C activity and downstream NSP activation [5] | IL-10 level [6] | level of pro-inflammatory cytokines (IFN-γ, IL-1β, IL-6, IL-17, TNF-α, and GM-CSF) [6]
4 | 5-chloro-N^2-(5-(4-(dimethylamino)phenyl)pyridin-2-yl)-N^4-(3-(trifluoromethyl)phenyl)pyrimidine-2,4-diamine [Compound 61] | 278.2 ± 1.2 nM | 377.5 ± 0.9 nM | 305.3 ± 2.7 nM | – | – | – | – | – | – | – | – | –
